Values quoted from earlier work as cited in patent US12507891B2 (priority 2020, dated 2025).

Conditions: incrementally increased propofol hypnosis

In the case of `CC(C)c1cccc(C(C)C)c1O` [propofol], the “PUAL under propofol hypnosis” value is listed as “PUAL values remain within normal ranges until a subject becomes completely unresponsive”.
